The values below come from patent US20240342138A1, “MICROTUBULE TARGETING AGENTS” (BPGbio, Inc., priority 2023, published 2024).

Structures are written as SMILES.

The target in one assay is T1, tubulin (Sus scrofa, UniProt P02550+P02554).
T1 construct: purchased Cytoskeleton Inc. BK006P
In words: In vitro tubulin polymerization assay (OD based, absorbance 340 nm). It is filed as biochemical, Porcine. The note with it: 10 μM and 20 nM; FIG. 1; N=3. How it is done:
The protocol followed for tubulin polymerization is according to the manufacturer's protocol. The following components were diluted as follows: • A vial of lyophilized GTP was diluted in 100 μl of sterile water and made into 10 μl aliquots and stored at −80° C. • Tubulin was diluted to 10 mg/ml in buffers+GTP as recommended, flash frozen in liquid nitrogen and stored at −80° C. • Paclitaxel was diluted to 2 mM in DMSO
The half area 96-well plate provided by kit manufacturer was allowed to warm up to 37° C. for 30 mins in the Molecular Devices M5 plate reader. The Compound 1 and nocodazole were diluted in DMSO to a concentration of 2 mM, followed by dilution of these working stocks in the General Tubulin Buffer (GTB-provided in the kit) to a 10× the final well concentration and final well volume of 10 μl. Same was done with the 2 mM Paclitaxel stock. Once the plate was warmed up, the compounds were added in duplicates to the wells. […] The plate was placed at 37° C. in the plate reader for 3 minutes. […] The experimental setup was as follows: • Absorbance read: 340 nm • Temperature: 37° C. • Shake: 5 s at medium speed prior to first read. • Read: The absorbance was read every 1 min for 90 minutes (total 91 reads).
The values were normalized to the first read by designating the first read as ‘0’ subtracting the value of the first read from the following reads. […]

The subject of another assay is HCT116 cells. The assay can be described thus: Spindle assembly checkpoint activation, flow cytometry. It is filed as cell-based. The note with it: 300 nM; FIG. 6. How it is done:
• 1. Hct116 were grown in DMEM with 10% FBS and 1% Penicillin/Streptomycin. • 2. Cells were plated into 6 well dishes at indicated cell numbers below (i.e. plate 1=300 k cells per well) and treatment started later the same day. Asynchronous (Asynch) control cells (Plate 1 were collected 1 day after plating. Compound 1 and Nocodazole were both 300 nM, CDK1i Ro-3306 10 μM, Aurora Bi (ABi) Hesperadin 50 μM. • 3. Cells were treated with Compound 1 or Noc for 20 hours then sequentially without changing media they were treated with CDK1i or ABi for 4 more hours. Alternatively, cells were treated with Compound 1 or Noc for 20 h then washed twice with warm media and grown in fresh media for 4 hours to allow passage through mitosis into G1 as diploid cells. • 4. Note that plate 4 treatments were in general extremely toxic to cells or inconclusive.
• 1. Collected all media and cells into the same conical tube. Centrifuged cells at 1000×g for 3 min. • 2. Aspirated off supernatant, washed with PBS. • 3. Centrifuged cells as above. • 4. Resuspended cells in cold 400 μl and while gently vortexing added 1 mL cold 100% ethanol slowly dropwise (fixes and permeabilizes) • 5. Stored at 4 degrees C. for at a minimum of 1 hour, or up to one week. • 6. […] Analyzed data with FlowJo 10 software and made graphs with GraphPad Prism.

T1 sequence (P02550 whole entry): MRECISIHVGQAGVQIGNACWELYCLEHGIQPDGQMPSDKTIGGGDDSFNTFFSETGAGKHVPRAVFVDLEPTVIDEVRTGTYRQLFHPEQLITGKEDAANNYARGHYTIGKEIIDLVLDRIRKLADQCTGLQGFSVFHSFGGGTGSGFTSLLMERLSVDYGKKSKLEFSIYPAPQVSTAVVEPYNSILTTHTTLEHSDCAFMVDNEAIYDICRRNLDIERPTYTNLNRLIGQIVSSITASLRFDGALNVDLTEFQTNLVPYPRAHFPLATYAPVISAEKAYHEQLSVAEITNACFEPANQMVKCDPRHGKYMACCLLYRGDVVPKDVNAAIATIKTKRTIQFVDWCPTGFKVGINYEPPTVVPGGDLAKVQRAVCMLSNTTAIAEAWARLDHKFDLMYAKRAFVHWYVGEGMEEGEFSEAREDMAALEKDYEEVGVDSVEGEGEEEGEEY
T1 sequence (P02554 whole entry): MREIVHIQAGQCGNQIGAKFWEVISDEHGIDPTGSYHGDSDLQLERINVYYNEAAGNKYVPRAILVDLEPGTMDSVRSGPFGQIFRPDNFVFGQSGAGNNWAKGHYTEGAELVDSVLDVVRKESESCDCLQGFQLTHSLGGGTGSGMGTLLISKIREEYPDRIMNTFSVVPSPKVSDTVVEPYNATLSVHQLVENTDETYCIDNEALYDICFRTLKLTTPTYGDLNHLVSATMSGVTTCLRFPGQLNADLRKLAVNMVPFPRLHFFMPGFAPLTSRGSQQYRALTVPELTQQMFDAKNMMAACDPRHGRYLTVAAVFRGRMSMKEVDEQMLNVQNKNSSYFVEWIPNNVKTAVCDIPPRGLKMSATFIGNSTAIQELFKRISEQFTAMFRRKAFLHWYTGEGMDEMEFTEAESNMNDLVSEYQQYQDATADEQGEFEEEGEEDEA

For `COc1ccccc1-c1nc(CNC(=O)c2ccccc2OC(F)F)n[nH]1` [Compound 1, 2-(difluoromethoxy)-N-[[5-(2-methoxyphenyl)-1H-1,2,4-triazol-3-yl]methyl]benzamide], the “Microtubule polymerization (absorbance at 340 nm, Vmax)” value at tubulin was “inhibits microtubule polymerization”. For the same compound, the “Spindle assembly checkpoint activation, mechanism” value with HCT116 cells was “a mechanism at or before microtubule-kinetochore attachment in M phase of the cell cycle”.
